Laboratory results as given in US11883407B2, “Medicament for the treatment of chronic cough” (Shionogi & Co., Ltd., priority 2018, dated 2024).

Tests used:
[1] = Phase I single dose and food effect study (safety, tolerability)
[2] = Phase II clinical trial: treatment-related and taste-related adverse events; format: in vivo, human
Method: The trial was conducted as a placebo-controlled, multicenter, randomized, double-blind, cross-over comparative study. The study consists of a screening phase (1 to 4 weeks), a first treatment phase (15 days), a drug holiday (2 to 3 weeks), a second treatment phase (15 days) and a follow-up phase (1 week).
Subjects (20 females, 11 males, mean age of 50.0 years) were randomly assigned to either the group receiving the compound according to Formula (I) first or the group receiving the placebo first. The subjects in the group receiving the compound according to Formula (I) first received orally tablets containing 150 mg of the compound according to Formula (I) (50 mg, 3 tablets), and the subjects in the group receiving the placebo first received orally placebo tablets (3 tablets), from the day following the first treatment phase once daily in the morning for 2 weeks.
Next, the incidence of taste-related adverse events and side effects observed in the Phase II clinical trial is shown in Table 6.
Here, the incidence of taste-related adverse events in Test Example 6 was examined. In this study, the compound represented by Formula (I) and the corresponding placebo were used as the investigational drugs. As the study design, a cross-over design consisting of two treatment phases was used. Each subject was assigned to either the treatment group taking 150 mg per day of the compound represented by Formula (I) during the first treatment phase and the placebo during the second treatment phase, or the treatment group taking the placebo during the first treatment phase and 150 mg per day of the compound represented by Formula (I) during the second treatment phase. The safety analysis population in this study was 31 subjects, all of whom were taking the compound represented by Formula (I) and the placebo. Among them, dysgeusia occurred in 1 subject (1/31, 3.2%) and hypogeusia occurred in another subject (1/31, 3.2%) when taking the compound represented by Formula (I). […] Therefore, taste-related adverse events occurred in 2 subjects (2/31, 6.5%). No taste-related adverse events were observed when taking the placebo.
Based on the above results, for the proportion of subjects who experienced any of the taste-related adverse events, the study design of each study was taken into account, and as the difference between each investigational drug and placebo, the mean of differences of incidence in the same subject between the treatments and the two-sided 95% confidence interval thereof were calculated for Test Example 6, and the difference of incidence between the Gefapixant 50 mg treatment group and the placebo treatment group and the two-sided 95% confidence interval thereof were calculated for the study MK-7264-012.

clinical = settings: human, plasma, oral
[3] = Phase I repeat dose study (safety, tolerability); format: in vivo, human
human P2X2/3 receptor = target: T1, human P2X2/3 receptor (Homo sapiens, UniProt P56373+Q9UBL9); assay: Evaluation of human P2X2/3 receptor inhibitory activity (Fluo-3 fluorescence, C6BU-1 cells, α,β-methylene ATP 6 μM)
T1 sequence (Q9UBL9 1-471): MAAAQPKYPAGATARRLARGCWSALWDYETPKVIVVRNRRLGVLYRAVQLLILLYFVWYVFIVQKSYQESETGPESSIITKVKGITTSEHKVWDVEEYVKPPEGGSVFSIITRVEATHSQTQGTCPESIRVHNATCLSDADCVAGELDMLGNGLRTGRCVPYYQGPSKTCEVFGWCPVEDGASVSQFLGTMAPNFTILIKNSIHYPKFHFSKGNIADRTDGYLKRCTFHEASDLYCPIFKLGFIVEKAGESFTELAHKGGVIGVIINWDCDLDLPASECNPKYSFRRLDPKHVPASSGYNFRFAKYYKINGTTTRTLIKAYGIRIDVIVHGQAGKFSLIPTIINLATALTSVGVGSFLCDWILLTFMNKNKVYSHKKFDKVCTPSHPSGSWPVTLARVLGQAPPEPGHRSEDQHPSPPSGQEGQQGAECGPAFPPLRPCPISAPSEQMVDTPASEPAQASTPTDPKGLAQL
T1 sequence (P56373 1-397): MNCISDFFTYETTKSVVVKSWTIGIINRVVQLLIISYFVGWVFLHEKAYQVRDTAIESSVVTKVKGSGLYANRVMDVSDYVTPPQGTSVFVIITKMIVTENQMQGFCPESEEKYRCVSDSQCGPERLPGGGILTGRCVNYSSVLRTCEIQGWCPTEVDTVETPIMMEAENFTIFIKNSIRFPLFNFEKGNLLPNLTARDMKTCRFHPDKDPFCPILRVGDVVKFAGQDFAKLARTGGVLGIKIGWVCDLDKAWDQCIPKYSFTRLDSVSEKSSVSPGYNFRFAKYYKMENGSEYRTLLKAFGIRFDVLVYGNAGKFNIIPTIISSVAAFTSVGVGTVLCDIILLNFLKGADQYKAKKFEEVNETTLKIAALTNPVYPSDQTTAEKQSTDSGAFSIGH

C[C@@H](Cn1c(=O)[nH]/c(=N\c2ccc(Oc3ccccn3)cc2)n(Cc2ccc(Cl)cc2)c1=O)C(=O)O [compound represented by Formula (I), (2S)-3-(3-[(4-Chlorophenyl)methyl]-2,6-dioxo-4-{[4-(pyridin-2-yloxy)phenyl]amino}-3,6-dihydro-1,3,5-triazin-1(2H)-yl)-2-methyl-propanoic acid]
deaths, serious adverse events, adverse events leading to discontinuation of administration ([1]; Part A and Part B, healthy adult males): no deaths, serious adverse events, or adverse events leading to discontinuation of administration | taste-related adverse events or side effects ([1]; all Phase I studies conducted (single dose/food effect and repeat dose)): No taste-related adverse events or side effects were observed | dysgeusia or any taste-related disorder as adverse event ([1]; single dose 3, 10, 30, 100, 300 and 450 mg groups): no dysgeusia or any taste-related disorder was observed | Any Treatment-related AEs, number of events ([2]; 150 mg once daily, N = 31): (4) | Drug-induced liver injury, number of events ([2]; 150 mg once daily, N = 31): (1) | Drug-induced liver injury, patients ([2]; 150 mg once daily, N = 31): 1 (3.2) n (%) | Dysgeusia, number of events ([2]; 150 mg once daily, N = 31): (1) | Dysgeusia, patients ([2]; 150 mg once daily, N = 31): 1 (3.2) n (%) | Gastrointestinal disorders, number of events ([2]; 150 mg once daily, N = 31): (1) | Gastrointestinal disorders, patients ([2]; 150 mg once daily, N = 31): 1 (3.2) n (%) | Hepatobiliary disorders, number of events ([2]; 150 mg once daily, N = 31): (1) | Hepatobiliary disorders, patients ([2]; 150 mg once daily, N = 31): 1 (3.2) n (%) | Hypoaesthesia oral, number of events ([2]; 150 mg once daily, N = 31): (1) | Hypoaesthesia oral, patients ([2]; 150 mg once daily, N = 31): 1 (3.2) n (%) | Hypogeusia, number of events ([2]; 150 mg once daily, N = 31): (1) | Nervous system disorders, number of events ([2]; 150 mg once daily, N = 31): (2) | Nervous system disorders, patients ([2]; 150 mg once daily, N = 31): 2 (6.5) n (%) | Patients with any Treatment-related AEs ([2]; 150 mg once daily, N = 31): 4 (12.9) n (%) | hypogeusia, patients ([2]; 150 mg once daily, N = 31): 1 (3.2) n (%) | severity of taste-related adverse events ([2]; 150 mg per day): both were mild | ageusia ([2]; 150 mg per day, 31 subjects): No ageusia was observed | dysgeusia (taste change), patients ([2]; 150 mg per day, 31 subjects): 3.2% | hypogeusia, patients ([2]; 150 mg per day, 31 subjects): 3.2% | number of subjects with taste-related adverse events ([2]; 150 mg per day, 31 subjects): 2 subjects | taste-related adverse events, patients ([2]; 150 mg per day, 31 subjects): 6.5% | Difference of incidence of any of the taste-related adverse events (drug − placebo) ([2]; 150 mg, mean difference between treatments in the same subject): 6.5% | concentration at 24 h (clinical; 3 mg): 15.2 ng/mL | concentration at 24 h (clinical; 10 mg): 50.7 ng/mL | concentration at 24 h (clinical; 30 mg): 134 ng/mL | concentration at 24 h (clinical; 100 mg): 424 ng/mL | concentration at 24 h (clinical; 300 mg): 1840 ng/mL | concentration at 24 h (clinical; 450 mg): 2680 ng/mL | dysgeusia or any taste-related disorder ([3]; 150 and 300 mg once daily for 2 weeks): no dysgeusia or any taste-related disorder was observed | deaths, serious adverse events, adverse events leading to discontinuation of administration ([3]; any administration group, healthy adult males): no deaths, serious adverse events or adverse events leading to discontinuation of administration | IC50 (human P2X2/3 receptor): 1100 nM
